We go through one molecule from patent US20180127360A1 (Elé Corporation, priority 2016, published 2018).

The nature of the series: Surface tension, du Nouy ring interfacial tensiometer. The format is physicochemical. The following applies: 25° C. On the procedure: Surface tension measurements were taken on solutions made from the mixture prepared in Example 1(C) using a du Nouy ring interfacial tensiometer, equipped with a six-cm circumference platinum-iridium ring. A series of test solutions at different concentrations were prepared and their surface tension measured at 25° C. For each test concentration, the ring is slowly drawn out of the liquid. The surface tension is equal to the force required to draw the ring completely out of the liquid, divided by twice the circumference of the ring. […] The surface tension at the CMC was 29.6 dyne/cm.

As to `CCCCCCCCCCCCNCCC(=O)O.N=C(N)NCCCC(N)C(=O)O` [Example 1(C)], the “surface tension at the CMC” value stood at 29.6 dyne/cm. For the same molecule, the “Critical Micelle Concentration (CMC)” value (series of test solutions at different concentrations) is on record as 2.46 millimoles per liter.
